The NIST ThermoML archive (doi:10.1021/je700260f)

Conditions: 313.15 K, Liquid, Vibrating tube method

FC(C(F)(F)F)C(F)(F)F [1,1,1,2,3,3,3-heptafluoropropane]
Conditions	mass density [kg/m3]
13017 kPa	1415.6
13123 kPa	1416.2
13155 kPa	1416.3
13192 kPa	1416.5
13220 kPa	1416.6
13252 kPa	1417
13275 kPa	1417.1
13311 kPa	1417.3
13338 kPa	1417.4
13374 kPa	1417.6
13406 kPa	1417.6
13443 kPa	1418
13476 kPa	1418.1
13514 kPa	1418.3
13538 kPa	1418.3
13572 kPa	1418.6
13615 kPa	1418.9
13653 kPa	1419.1
13686 kPa	1419.4
13729 kPa	1419.6
13757 kPa	1419.6
13800 kPa	1419.9
13833 kPa	1420.1
13862 kPa	1420.3
13891 kPa	1420.4
13925 kPa	1420.6
13959 kPa	1420.6
13998 kPa	1420.9
14038 kPa	1421.2
14071 kPa	1421.4
14109 kPa	1421.6
14152 kPa	1421.9
14190 kPa	1422
14230 kPa	1422.4
14386 kPa	1422.9
14416 kPa	1423.1
14459 kPa	1423.5
14490 kPa	1423.7
14534 kPa	1423.8
14559 kPa	1423.9
14599 kPa	1424.1
14628 kPa	1424.3
14673 kPa	1424.6
14708 kPa	1424.9
14737 kPa	1424.9
14767 kPa	1425
14796 kPa	1425.3
14836 kPa	1425.4
14865 kPa	1425.6
14904 kPa	1425.8
14933 kPa	1425.9
14966 kPa	1426.1
14996 kPa	1426.1
15036 kPa	1426.5
15063 kPa	1426.5
15093 kPa	1426.7
15124 kPa	1426.9
15155 kPa	1427
15184 kPa	1427.2
15210 kPa	1427.4
15246 kPa	1427.5
15282 kPa	1427.7
15313 kPa	1428.1
15346 kPa	1427.9
15372 kPa	1428.3
15412 kPa	1428.5
15443 kPa	1428.6
15484 kPa	1428.7
15512 kPa	1429
15540 kPa	1429
15570 kPa	1429.3
15597 kPa	1429.5
15629 kPa	1429.6
15661 kPa	1429.7
15703 kPa	1429.9
15744 kPa	1430
15771 kPa	1430.2
15813 kPa	1430.6
15845 kPa	1430.6
15887 kPa	1430.9
15924 kPa	1431.2
15947 kPa	1431.2
15988 kPa	1431.4
16024 kPa	1431.6
16051 kPa	1431.6
16091 kPa	1431.9
16136 kPa	1432.1
16169 kPa	1432.2
16230 kPa	1432.6
16290 kPa	1432.9
16326 kPa	1433
16358 kPa	1433.3
16395 kPa	1433.5
16436 kPa	1433.6
16468 kPa	1433.7
16504 kPa	1434
16582 kPa	1434.4
16615 kPa	1434.6
16652 kPa	1434.6
16709 kPa	1435
16737 kPa	1434.9
16807 kPa	1435.4
16839 kPa	1435.5
16867 kPa	1435.7
16905 kPa	1436.1
16942 kPa	1436.1
16974 kPa	1436.3
17006 kPa	1436.5
17039 kPa	1436.6
17075 kPa	1436.8
17104 kPa	1436.8
17132 kPa	1437.2
17165 kPa	1437.3
17197 kPa	1437.3
17235 kPa	1437.5
17267 kPa	1437.6
17294 kPa	1437.8
17334 kPa	1438
17360 kPa	1438.1
17392 kPa	1438.3
17427 kPa	1438.5
17459 kPa	1438.7
17496 kPa	1438.9
17519 kPa	1439
17551 kPa	1439.2
17575 kPa	1439.3
17616 kPa	1439.4
17652 kPa	1439.6
17684 kPa	1439.7
17711 kPa	1440
17743 kPa	1440
17775 kPa	1440.1
17811 kPa	1440.3
17839 kPa	1440.4
17877 kPa	1440.6
17906 kPa	1440.8
17943 kPa	1440.9
17971 kPa	1441.1
18008 kPa	1441.2
18041 kPa	1441.4
18077 kPa	1441.6
18110 kPa	1441.7
18143 kPa	1442
18176 kPa	1442.1
18204 kPa	1442.2
18242 kPa	1442.3
18277 kPa	1442.6
18309 kPa	1442.7
18337 kPa	1442.8
18375 kPa	1443
18403 kPa	1443.1
18441 kPa	1443.2
18469 kPa	1443.5
18507 kPa	1443.6
18691 kPa	1444.6
18725 kPa	1444.7
18755 kPa	1444.7
18796 kPa	1444.9
18830 kPa	1445
18875 kPa	1445.3
18905 kPa	1445.6
18955 kPa	1445.7
18985 kPa	1445.8
19031 kPa	1445.9
19066 kPa	1446.1
19107 kPa	1446.4
19137 kPa	1446.6
19178 kPa	1446.8
19218 kPa	1446.9
19263 kPa	1447.2
19293 kPa	1447.3
19333 kPa	1447.5
19378 kPa	1447.6
19412 kPa	1447.8
19441 kPa	1448
19476 kPa	1448.1
19522 kPa	1448.4
19553 kPa	1448.5
19589 kPa	1448.7
19625 kPa	1448.9
19669 kPa	1448.9
19710 kPa	1449.1
19750 kPa	1449.4
19781 kPa	1449.5
19822 kPa	1449.6
19858 kPa	1449.8
19893 kPa	1450
19930 kPa	1450.1
19961 kPa	1450.3
19996 kPa	1450.4
20037 kPa	1450.7
20072 kPa	1450.8
20108 kPa	1450.8
20144 kPa	1451.1
20180 kPa	1451.2
20221 kPa	1451.4
20257 kPa	1451.5
20293 kPa	1451.8
20324 kPa	1451.8
20366 kPa	1452
20397 kPa	1452.3
20433 kPa	1452.4
20464 kPa	1452.6
20500 kPa	1452.8
20530 kPa	1452.8
